Measured values published in patent publication US20090054451A1, “Use of Piperidine Derivatives as Agonists of Chemokine Receptor Activity” (Euroscreen S.A., priority 2007, published 2009).
Like-named read-outs stand apart in the source and are kept apart here.

What was measured:
[1] = test system: recombinant and non-replicative HIV virus; assay: Inhibitory effect on HIV infection to MAGI-CCR5 cells (luciferase reporter virus); assay type: cell-based
Method: The inhibitory activity of the compounds of the invention on HIV infection is measured on the human MAGI R5 recombinant cell line coexpressing the human CCR5 receptor and CD4 at their extracellular membrane. MAGI R5 cells are plated in black view plates at 10,000 cells/well and incubated with the appropriate concentrations of the compounds of the invention during 1 hour. This is followed by a 24 hours infection period with the recombinant and non-replicative HIV virus coding for the firefly luciferase (Bona et al., 2006, Antimicrob. Agents Chemother. 50: 3407-3417). The inhibitory effect of the tested compound on virus entry in MAGI R5 cells is measured by a reduction of luciferase signal (TopCount-NXT reader (Packard) and detection luciferase kit: steadylite HTS assay kit (Perkin Elmer)) in the presence of the compound of the invention relative to the maximum signal obtained from cells infected with the virus without any added compound. The results of the tested compounds are reported as the concentration of compound required to inhibit 50% (IC50) of the maximum luciferase signal.

CCR5 receptor [2] = biological target: T1, CCR5 receptor (Homo sapiens, UniProt P51681); assay: 125I-MIP-1β binding competition assay; set-up: expressed in transfected cells; host or cells: membranes of recombinant Chinese hamster ovary (CHO) cells; conditions: membranes of CHO cells expressing human CCR5; 0.05 nM 125I-MIP-1β
Method: The ability of the compounds of the invention to inhibit the binding of MIP-1β was assessed by an in vitro radioligand binding assay. Membranes were prepared from Chinese hamster ovary recombinant cells which express the human CCR5 receptor. The membranes were incubated with 0.05 nM ^125I-MIP-1β in a HEPES 25 mM/CaCl2 5 mM/MgCl2 1 mM buffer and various concentrations of the compounds of the invention. The amount of iodinated MIP-1β bound to the receptor was determined after filtration by the quantification of membrane associated radioactivity using the TopCount-NXT reader (Packard). Competition curves were obtained for compounds of the invention and the concentration of compound which displaced 50% of bound radioligand (IC50) was calculated

CCR5 receptor [3] = biological target: T1, CCR5 receptor; assay: Aequorin-based calcium flux assay, agonist mode; assay type: cell-based; set-up: expressed in transfected cells; host or cells: Chinese hamster ovary (CHO) cells coexpressing apoaequorin and Gα16
Method: (§1) Briefly, Chinese hamster ovary cells expressing the CCR5 receptor are transfected to coexpress apoaequorin and Gα16. Cells are incubated with 5 μM Coelenterazine H (Promega) overnight at room temperature, and resuspended at a concentration of 0.1×10^6 cells/ml. Cells are then mixed with test agonist or antagonist compounds and light emission by the aequorin is recorded with a luminometer (FDSS 6000-Hamamatsu) for 30 sec. Results are expressed as Relative Light Units (RLU). Controls include cells not expressing CCR5 in order to exclude possible non-specific effects of the test compound.
An agonist response is defined as an increase of light emission by aequorin corresponding to 10% or more of the light emitted by a reference sample of cells expressing CCR5 and treated with a the reference agonist ligand MIP-1β.

CCR5 receptor [4] = biological target: T1, CCR5 receptor; assay: Aequorin-based calcium flux assay, antagonist mode (against reference agonist MIP-1β); assay type: cell-based; set-up: expressed in transfected cells; host or cells: Chinese hamster ovary (CHO) cells coexpressing apoaequorin and Gα16; conditions: CHO cells expressing CCR5, vs reference agonist MIP-1β; for IC50: read-out: Aequorin/Ca++ Antagonist assay IC50; for all read-outs here: key: Inactive means >30000 nm
Method: as §1
An antagonist response is defined as a decrease of light emission by aequorin of 10% or more in a sample of cells expressing CCR5 stimulated by a reference agonist ligand MIP-1β and treated with the compound of the invention, relative to a sample of cells expressing CCR5 but only treated with the reference agonist ligand MIP-1β.

[5] = Human immunodeficiency virus 1, MAGI, read-out: IC50 (HIV infection of MAGI R5 cells), range over the listed compounds
[6] = Human immunodeficiency virus 1, MAGI-CCR5, 24 h, read-out: HIV-Infection assay IC50
[7] = CHO cells expressing CCR5, apoaequorin and Gα16, read-out: Aequorin/Ca++ assay EC50
[8] = CHO cells expressing CCR5, agonistic mode of action
[9] = CHO cells expressing CCR5, agonistic mode of action, read-out: Aequorin/Ca++ Agonist assay EC50

T1 sequence (P51681 whole entry): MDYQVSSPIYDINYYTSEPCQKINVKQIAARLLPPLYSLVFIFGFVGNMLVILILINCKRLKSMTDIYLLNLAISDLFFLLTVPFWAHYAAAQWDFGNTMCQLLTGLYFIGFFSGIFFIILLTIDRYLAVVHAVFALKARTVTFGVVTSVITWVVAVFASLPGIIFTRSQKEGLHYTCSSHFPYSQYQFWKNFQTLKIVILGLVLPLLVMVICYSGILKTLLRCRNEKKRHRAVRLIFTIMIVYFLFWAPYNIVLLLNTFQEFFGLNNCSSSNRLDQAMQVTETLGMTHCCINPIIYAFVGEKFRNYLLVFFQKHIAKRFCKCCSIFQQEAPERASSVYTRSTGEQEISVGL

| SMILES | IC50 [1, 5] [nM] | IC50 [1, 6] [nM] | IC50 (CCR5 receptor [2]) [nM] | EC50 (CCR5 receptor [3]; [7]) [nM] | Aequorin/Ca++ Agonist assay EC50 (CCR5 receptor [3]; [8]) | IC50 (CCR5 receptor [4]) [nM] | EC50 (CCR5 receptor [3]; [9]) [nM] | Aequorin/Ca++ Antagonist assay IC50 (CCR5 receptor [4]) |
| --- | --- | --- | --- | --- | --- | --- | --- | --- |
| CC(CC(c1ccccc1)c1ccccc1)N1CCC(NC(=O)Cc2ccc(C#N)cc2)CC1 (centres unmarked) [Compound 65] | 25.6 to 2500 | 71.7 | 0.64 | 117 | – | – | – | – |
| CN(C(=O)C(c1ccccc1)N1Cc2ccccc2C1=O)C1CCN(CCC(c2ccccc2)c2ccccc2)CC1 (centres unmarked) [Compound 62] | – | – | – | – | Inactive | 1230 | – | – |
| CS(=O)(=O)c1ccc(CC(=O)NC2CCN(CCC(c3ccccc3)c3ccccc3)CC2)cc1 [Compound 2] | 25.6 to 2500 | 345 | 6.61 | 33.2 | – | – | – | – |
| C[C@H](CN(c1cccc(F)c1)S(=O)(=O)Cc1ccccc1)N1CCC(NC(=O)Cc2ccc(C(F)(F)F)cc2)CC1 [Compound 90] | – | 5.3 | 0.7 | 180 | – | – | – | – |
| N#Cc1ccc(CC(=O)NC2CCN(CCC(c3ccccc3)c3ccccc3)CC2)cc1 [Compound 24] | 25.6 to 2500 | 384 | 3.25 | 104 | – | – | – | – |
| C[C@H](CN(c1cccc(F)c1)S(=O)(=O)Cc1ccccc1)N1CCC(NC(=O)Cc2ccccc2F)CC1 [Compound 80] | – | 27 | 0.8 | 31.3 | – | – | – | – |
| C[C@H](CN(c1ccccc1)S(=O)(=O)Cc1ccccc1)N1CCC(NC(=O)Cc2ccc(C#N)cc2)CC1 [Compound 93] | – | 1.9 | 0.5 | 50.8 | – | – | – | – |
| C[C@H](CN(c1cccc(F)c1)S(=O)(=O)Cc1ccccc1)N1CCC(NC(=O)Cc2ccc(F)cc2F)CC1 [Compound 81] | – | 14.6 | 0.2 | 38.1 | – | – | – | – |
| O=C(CC1CCCCC1)NC1CCN(CCC(c2ccccc2)c2ccccc2)CC1 [Compound 28] | – | 2540 | 158 | 620 | – | – | – | – |
| CN(C(=O)CN1Cc2ccccc2C1=O)C1CCN(CCC(c2ccccc2)c2ccccc2)CC1 [Compound 63] | – | – | – | – | Inactive | 1430 | – | – |
| C[C@H](CN(c1cccc(F)c1)S(=O)(=O)Cc1ccccc1)N1CCC(NC(=O)Cc2ccc(F)cc2)CC1 [Compound 97] | – | 3 | 0.2 | 94.4 | – | – | – | – |
| C[C@H](CN(c1ccccc1)S(=O)(=O)Cc1ccccc1)N1CCC(NC(=O)Cc2ccc(F)cc2F)CC1 [Compound 113] | – | 4.6 | – | 29.4 | – | – | – | – |
| COc1ccc(CC(=O)NC2CCN(CCC(c3ccccc3)c3ccccc3)CC2)cc1 [Compound 3] | 25.6 to 2500 | 871 | 14.8 | 27.9 | – | – | – | – |
| CC(CC(c1ccccc1)c1ccccc1)N1CCC(NC(=O)Cc2ccc(S(C)(=O)=O)cc2)CC1 (centres unmarked) [Compound 64] | 25.6 to 2500 | 25.6 | 0.14 | 83.4 | – | – | – | – |
| O=C(CN1Cc2ccccc2C1=O)NC1CCN(CCC(c2ccccc2)c2ccccc2)CC1 [Compound 31] | – | – | – | – | – | – | 470 | Inactive |
| O=C(Cc1ccccc1)NC1CCN(CCC(c2ccccc2)c2ccccc2)CC1 [Compound 7] | 25.6 to 2500 | 1420 | 26.7 | 43.2 | – | – | – | – |
| O=C(Cc1ccc(OC(F)(F)F)cc1)NC1CCN(CCC(c2ccccc2)c2ccccc2)CC1 [Compound 5] | 25.6 to 2500 | 425 | 23.4 | 145 | – | – | – | – |
| O=C(Cc1ccc(Cl)cc1)NC1CCN(CCC(c2ccccc2)c2ccccc2)CC1 [Compound 1] | 25.6 to 2500 | 333 | 9.32 | 58.8 | – | – | – | Inactive |
| O=C(NC1CCN(CCC(c2ccccc2)c2ccccc2)CC1)C(c1ccccc1)N1Cc2ccccc2C1=O (centres unmarked) [Compound 37] | – | – | – | – | – | – | 4250 | Inactive |
| O=C(Cc1c[nH]c2ccccc12)NC1CCN(CCC(c2ccccc2)c2ccccc2)CC1 [Compound 25] | 25.6 to 2500 | 1130 | 67.5 | 90.8 | – | – | – | – |
